Experiments:
[1] = test system: PC-3 human prostate tumor; assay: PC-3 human prostate tumor in nude mice, subcutaneous treatment for 14 days (Examples 10 and 11); format: in vivo, Nude mouse; conditions: 10 μg/kg body weight per day s.c.
Experimental: PC-3 human prostate tumor was obtained from ATCC (ATCC 1435). PC-3 cells were grown in RPMI media containing 10% (v/v) of fetal calf serum and were harvested in the logarithmic phase of growth by trypsinization. Cells were centrifuged at 1200 rotation per minute (rpm) and washed three timed with Hanks balanced salt solution (HBSS). Following washing, cells were counted and adjusted to a concentration of 1×10^7 cells/ml in HBSS. A 0.1 ml volume of tumor cell inoculum containing 1×10^6 cells was administered subcutaneously into the two opposite flank region of each Nude mouse (Nu/Nu, BALE/c background). Tumor growth was monitored for approximately 18 days. Once tumor growth has been established (volume of tumor reached a volume of 50 mm^3) treatment with rHuPSP94 (SEQ ID NO: 2) was initiated and was performed once a day for 14 days by the subcutaneous route. Based on the assigned treatment groups illustrated in table 4.
PC-3 human prostate tumor (ATCC 1435) obtained from ATCC was implanted bilaterally into nude mice and tumor growth was monitored for approximately 18 days. PC-3 cells were injected once subcutaneously into each flank of the mice. Once tumor growth has been established (i.e., volume of tumor reached 0.25 to 0.50 cm^3) the treatment with decapeptide (SEQ ID NO: 3), native PSP94 (SEQ ID NO: 1) and control scrambled polypeptide PB111 was initiated and was performed once a day for 14 days by the subcutaneous route based on the treatment groups (randomly assigned) illustrated in table 5.

PC-3 cells [2] = assay: clonogenicity assay (colony formation); format: cell-based, human
Experimental: The synthetic decapeptide (SEQ ID NO: 3) has been shown herein to mimic the biological activity of native PSP94 (nPSP94) (SEQ ID NO: 1) and therefore its effect on the PC-3 cells was studied in clonogenicity assay (colony formation). Cells were seeded in Costar 96 well cell culture flat bottom plates in RPMI supplemented media containing 50 μg/ml of bovine serum albumin (BSA) and 0.1 μM FeSO4. Clonogenicity was evaluated for PC-3 cells grown in the presence of various concentration of the decapeptide after 9 days of culture (FIG. 4a). A parallel experiment was performed with various concentration of nPSP94 using the same experimental conditions (FIG. 4b). Other experiments evaluating clonogenicity was performed with the decapeptide (FIG. 5a) or nPSP94 (FIG. 5b) after 21 days of culture as well as after 10 days of culture (FIG. 6a: Decapeptide and FIG. 6b: nPSP94).

PC-3 cells [3] = assay: Apoptosis assay by ELISA plus; format: cell-based, human; conditions: 22.5 μM to 90 μM, 72 hours
Experimental: The three polypeptides (SEQ ID NO: 4, SEQ ID NO: 5 and SEQ ID NO 6) and native PSP94 used here as a positive control were tested in ELISA plus assay to measure cell death through apoptosis. Briefly, the ELISA plus assay is a sandwich enzyme immunoassay able to measure mono- and oligonucleosomes present in the cytoplasmic fraction of cell lysate using two antibodies, one directed against DNA and the other directed against histones. The apoptotic cell death is characterized by activation of endogenous endonucleases (e.g., calcium- and magnesium-dependant), which cleave double-stranded DNA at the most accessible internucleosomal linker region, generating mono- and oligonucleosomes. The enrichment of mono- and oligonucleosomes in the cytoplasm of the apoptotic cells is due to the fact that DNA degradation occurs several hours before plasma membrane breakdown.
Four thousand cells were seeded in Costar 96 well cell culture flat bottom plates in RPMI supplemented media containing 50 μg/ml of bovine serum albumin (BSA) and 0.1 μM FeSO4. The PC-3 cells were treated with various concentrations (22.5 μM to 90 μM) of polypeptides for 72 hours. Apoptosis assay was done as per manufacturer's instructions using the ApopTag kit (Boeringher Mannheim).

PC-3 cells [4] = assay: DNA fragmentation assay (DNA ladder, apoptosis); format: cell-based, human; conditions: various concentrations, 72 hours
Experimental: Cell apoptosis result in DNA fragmentation can be evaluated by the presence of a DNA ladder visualized when DNA is run on a 1.2% agarose gel. DNA ladder assay (apoptosis assay) was performed following exposure of PC-3 to various concentrations of the polypeptides for 72 hours. The polypeptides that were used in this particular experiment are polypeptide 7-21 (SEQ ID NO: 4), polypeptide PCK3145 (SEQ ID NO: 5) and polypeptide 76-94 (SEQ ID NO: 6). […] This effect was especially evident following treatment with PCK3145 (SEQ ID NO: 5), which is illustrated by FIG. 7. Lane 1 of the gel illustrated in FIG. 7 represents a lambda HindIII digest standard.
Apoptosis of PC-3 cells, following a 72 hours exposure to PCK3145 at 500 μg/ml concentration, was evaluated in supplemented media by DNA fragmentation assay. Doxorubicin was used as a reference positive control. Untreated cells and PCK3145-treated cells were harvested and the DNA was isolated. Isolated DNA was run on a 1.2% agarose gel containing Ethidium Bromide (EtBr). […] Lane 1 of the gel illustrated in FIG. 25 represents the DNA marker (100 base pair DNA ladder). Lane 2 of the gel illustrated in FIG. 25 represents a control of untreated PC-3 cells.

[5] = test system: human prostate cancer cells PC-3; assay: MTS assay, growth inhibitory effect on PC-3 cells; format: cell-based; conditions: 72 hours
Description: Cell proliferation was monitored on PC-3 cells using the MTS/PMS (phenazine methosulfate) kit (Promega), which primarily measures mitochondrial activity of live cells. The basic principle of this method involves the fact that the mitochondrial enzymes of the live cells metabolize the MTS/PMS dyes forming a brown colored precipitate which can be measured as optical density (OD) by absorption at 490 nm in a spectrophotometer. Therefore, the OD values are proportional to the number of living cells. In addition, monitoring of cell morphology was also performed. Cell morphology would be indicative of their health status. For example, viable cells would appear adherent and spread out whereas dead cells would be in suspension in the media and would appear granular and round.
PC-3 cells (ATCC, Lot AT06) used in these experiments were at a passage number lower or equal to 70 (n≧70). Cells were seeded in Costar 96 well cell culture flat bottom plates in RPMI supplemented media containing 50 μg/ml of bovine serum albumin (BSA) and 0.1 μM FeSO4. Peptide was diluted in the same media. Cells were continuously exposed to the polypeptides of the present invention for 72 hours without changing media. Native PSP94 or rHuPSP94 concentrated two fold were directly added to wells and diluted to 1× in order to minimize cell manipulation and avoid detachment.
Native PSP94, rHuPSP94, polypeptide 22-36 and PB111 polypeptide (scrambled polypeptide) were also included in this experiment as controls. Cell proliferation assay was performed on either PC-3 cells or normal fibroblasts (used here as control) using the MTS/PMS kit (Promega). Four thousand cells (FIGS. 9 and 10) or three thousand (FIG. 11) cells were seeded in Costar 96 well cell culture flat bottom plates in RPMI supplemented media containing 50 μg/ml of bovine serum albumin (BSA) and 0.1 μM FeSO4. In addition, monitoring of cell morphology was also performed.
This assay measures the mitochondrial activity of the live cells. The basic principle of this method involves the fact that the mitochondrial enzymes of the live cells metabolize the MTS/PMS dyes forming a brown colored precipitate which can be measured as optical density (OD) by absorption at 490 nm in a spectrophotometer. Therefore, the OD values are proportional to the number of living cells.
In addition, a visual observation of the cells was also done to check the cell morphology, which could also be indicative of cell growth. The following conditions for MTS assay were used: PC-3 (ATCC, Lot AT06), passage number n≧70, cell line adapted to grow in serum-free OPTI-MEM and in RPMI supplemented with BSA (50 μg/ml) and Ferrous Sulfate (0.1 μM), continuous exposure for up to 72 hours without changing media (i.e., adding PCK3145 at 2× concentration directly to wells and diluting it 1:2 to 1× to minimize cell manipulation and avoid detachment).

decapeptide: synthetic decapeptide as set forth in SEQ ID NO: 3, mimics the biological activity of native PSP94 (YTCSVSEPGI; decapeptide)
tumor growth (tumor volume) [1]: significant (p<0.05) tumor growth reduction | decrease in colony number (PC-3 cells [2]; 1 μg/ml): 40% | decrease in colony number (PC-3 cells [2]; 10 μg/ml): up to 60%

polypeptide 76-94: PSP94 derived synthetic polypeptide from the carboxy terminus end, SEQ ID NO: 6 (IVVEKKDPKKTCSVSEWII; Polypeptide 76-94)
apoptotic cell death effect (PC-3 cells [3]): dose dependent increase in the apoptotic cell death effect | DNA laddering effect (PC-3 cells [4]): induced a DNA laddering effect characteristic of apoptosis | growth inhibition of PC-3 cells (FIG. 10) [5]: significant growth inhibition
